According to patent publication US10689354B2, “Aminoazole derivative” (Teijin Pharma Limited, priority 2015, dated 2020):

Experiments:
[1] = target: T1, androgen receptor (AR-LBD) (Rattus norvegicus, UniProt P15207); test: Evaluation of androgen receptor affinity (PolarScreen Androgen Receptor Competitor Assay Kit, Red; fluorescence polarization); conditions: 22° C. for 5 hours, relative to binding rate of 1 μM DHT, read-out: AR affinity (pEC50) (converted)
T1 construct: 5 μL of 2×AR-LBD/Fluoromone AL Red Complex contained in the kit; purchased Invitrogen
T1 sequence (P15207 651-882 limits assumed): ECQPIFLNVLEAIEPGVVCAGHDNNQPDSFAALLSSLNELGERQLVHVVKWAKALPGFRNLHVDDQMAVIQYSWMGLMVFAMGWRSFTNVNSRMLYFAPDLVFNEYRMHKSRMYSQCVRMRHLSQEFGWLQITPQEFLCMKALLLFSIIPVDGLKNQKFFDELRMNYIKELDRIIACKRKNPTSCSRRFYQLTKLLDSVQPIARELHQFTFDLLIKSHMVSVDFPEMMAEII
Method in brief: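 pEC50 values reflect tracer displacement from AR-LBD (Fluoromone AL Red complex) measured by fluorescence polarization after 5 h at 22° C, normalized to 1 μM DHT and fitted with a 4-parameter model.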

human androgen receptor = target: T2, human androgen receptor (Homo sapiens, UniProt P10275); test: Reporter assay of an androgen receptor responsive sequence (luciferase, transiently transfected HEK293 cells); format: cell-based; conditions: 24 hours incubation, relative to activity of 100 nM DHT, read-out: AR transcriptive activity (pEC50) (converted)
T2 construct: expressed in transfected cells; host or cells: HEK293
T2 sequence (P10275 1-920): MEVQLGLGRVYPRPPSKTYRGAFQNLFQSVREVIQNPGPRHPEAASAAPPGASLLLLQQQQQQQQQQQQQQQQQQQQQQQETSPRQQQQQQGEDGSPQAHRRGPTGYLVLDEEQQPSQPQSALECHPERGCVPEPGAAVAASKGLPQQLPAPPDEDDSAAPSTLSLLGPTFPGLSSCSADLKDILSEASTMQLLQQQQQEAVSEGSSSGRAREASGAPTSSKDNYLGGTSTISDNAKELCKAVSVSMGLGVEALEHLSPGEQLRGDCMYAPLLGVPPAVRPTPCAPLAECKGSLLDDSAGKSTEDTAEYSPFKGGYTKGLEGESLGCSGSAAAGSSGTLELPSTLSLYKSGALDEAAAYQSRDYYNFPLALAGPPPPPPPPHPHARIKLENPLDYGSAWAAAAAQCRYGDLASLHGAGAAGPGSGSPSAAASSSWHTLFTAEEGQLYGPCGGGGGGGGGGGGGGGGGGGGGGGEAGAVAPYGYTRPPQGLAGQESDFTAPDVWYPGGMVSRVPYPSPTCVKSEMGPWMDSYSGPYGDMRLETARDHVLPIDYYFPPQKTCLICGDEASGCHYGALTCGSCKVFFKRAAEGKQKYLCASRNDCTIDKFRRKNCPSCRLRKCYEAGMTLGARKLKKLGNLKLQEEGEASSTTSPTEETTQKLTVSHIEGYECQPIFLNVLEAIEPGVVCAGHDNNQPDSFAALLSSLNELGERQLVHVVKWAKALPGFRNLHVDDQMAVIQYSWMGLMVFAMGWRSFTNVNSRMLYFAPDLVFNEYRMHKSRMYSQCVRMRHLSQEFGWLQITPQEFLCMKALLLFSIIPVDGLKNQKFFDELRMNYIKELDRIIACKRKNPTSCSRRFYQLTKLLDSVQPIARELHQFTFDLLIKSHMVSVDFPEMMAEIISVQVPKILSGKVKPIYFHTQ
Description: Reporter Assay of an Androgen Receptor Responsive Sequence
To examine the agonist activity of compounds for androgen, a reporter assay using an androgen receptor responsive sequence was conducted.
Using Lipofectamine 2000 (Invitrogen), a plasmid mixture (pGL4-ARE (200 ng/well), pcDNA3-hAR (20 ng/well), pRL-TK (Promega) (150 ng/well)) was transiently transfected into HEK293 cells. The contents of the plasmid (mixture) are as follows:
pGL4-ARE is a reporter plasmid containing firefly luciferase sequence under the control of androgen receptor responsive sequence; pcDNA3-hAR is a plasmid containing full-length sequence of human androgen receptor under the constant control of CMV promoter; pRL-TK is a plasmid containing Renilla Luciferase sequence under the control of herpes simplex virus thymidine kinase and used as an internal standard for evaluations of transfection efficiency and compound toxicity.
After the incubation of Lipofectamine 2000 and the plasmid mixture in Opti-MEM for 20 minutes, the mixture was mixed with a cell suspension prepared with Opti-MEM in the similar way, and the cell suspension was plated to a 96-well plate at 20000 cells/well. The transfection was conducted by incubating the plates under the condition of 5% CO2 at 37° C. for 3 hours. Three hours after the transfection, the culture medium was removed and a compound solution prepared by DMEM supplemented with 5% FBS and treated with charcoal was added, and the mixture was incubated under the condition of 5% CO2 at 37° C. for 24 hours. After the incubation with the compound, luciferase activities were measured with a luminometer using Dual-Glo™ Luciferase Assay System (Promega). The measurement of the luciferase activities was performed in accordance with the protocol recommended by Promega. The activity of the compound was determined by comparing to the activity of 100 nM of DHT, and quantified the logarithm value (pEC50) of reciprocal value of the effective concentration of the compound which is equal to 50% of the activity value by applying a 4 parameter goodness-of-fit calculation.

| EC50 [1] | EC50 (human androgen receptor) | SMILES |
| --- | --- | --- |
| 0.02 µM | 0.2 µM | Cc1sc(N(Cc2ccc(OC(F)(F)F)c(Cl)c2)c2ccc(C#N)cc2)nc1C(=O)NS(C)(=O)=O [Compound 421, 2-[N-[[3-chloro-4-(trifluoromethoxy)phenyl]methyl]-4-cyano-anilino]-5-methyl-N-methylsulfonyl-thiazole-4-carboxamide] |
| 0.0631 µM | 0.0398 µM | Cc1sc(N(Cc2ccc(F)cc2)c2ccc(C#N)cc2)nc1C(=O)NS(C)(=O)=O [Compound 15, 2-[4-cyano-N-[(4-fluorophenyl)methyl]anilino]-5-methyl-N-methylsulfonyl-thiazole-4-carboxamide] |
| 0.251 µM | > 10 µM | Cc1oc(N(Cc2ccc3ncsc3c2)c2ccc(C#N)cc2)nc1C(=O)NS(C)(=O)=O [Compound 616, 2-[N-(1,3-benzothiazol-6-ylmethyl)-4-cyano-anilino]-5-methyl-N-methylsulfonyl-oxazole-4-carboxamide] |
| 0.0316 µM | 0.158 µM | COCCCS(=O)(=O)NC(=O)c1nc(N(Cc2ccc(OC(F)F)c(Cl)c2)c2ccc(C#N)cc2)sc1C [Example 189, 2-[N-[[3-chloro-4-(difluoromethoxy)phenyl]methyl]-4-cyano-anilino]-N-(3-methoxypropylsulfonyl)-5-methyl-thiazole-4-carboxamide] |
| 0.501 µM | 3.16 µM | Cc1sc(N(Cc2ccccc2)c2ccc(-n3cncn3)cc2)nc1C(=O)NS(C)(=O)=O [Compound 61, 2-[N-benzyl-4-(1,2,4-triazol-1-yl)anilino]-5-methyl-N-methylsulfonyl-thiazole-4-carboxamide] |
| 0.0631 µM | 1.26 µM | CCS(=O)(=O)NC(=O)c1nc(N(CCc2ccc(Cl)cc2)Cc2ccc(OC(F)(F)F)cc2)sc1C [Compound 701, 2-[2-(4-chlorophenyl)ethyl-[[4-(trifluoromethoxy)phenyl]methyl]amino]-N-ethylsulfonyl-5-methyl-thiazole-4-carboxamide] |
| 0.0251 µM | 0.158 µM | Cc1sc(N(CCc2ccc(C#N)cc2)Cc2ccc(Cl)cc2)nc1C(=O)NS(=O)(=O)Cc1ccncc1 [Compound 741, 2-[(4-chlorophenyl)methyl-[2-(4-cyanophenyl)ethyl]amino]-5-methyl-N-(4-pyridylmethylsulfonyl)thiazole-4-carboxamide] |
| 0.158 µM | > 10 µM | Cc1sc(N(Cc2ccc(OCc3ccncc3)cc2)c2ccc(C#N)cc2)nc1C(=O)NS(C)(=O)=O [Compound 571, 2-[4-cyano-N-[[4-(4-pyridylmethoxy)phenyl]methyl]anilino]-5-methyl-N-methylsulfonyl-thiazole-4-carboxamide] |
| 0.0251 µM | 0.0631 µM | Cc1sc(N(Cc2cccc(OC(F)F)c2)c2ccc(C#N)cc2)nc1C(=O)NS(C)(=O)=O [Compound 4, 2-[4-cyano-N-[[3-(difluoromethoxy)phenyl]methyl]anilino]-5-methyl-N-methylsulfonyl-thiazole-4-carboxamide] |
| 0.0794 µM | 0.501 µM | Cc1sc(N(CCc2ccc3c(c2)OCO3)Cc2ccccc2)nc1C(=O)NS(C)(=O)=O [Compound 708, 2-[2-(1,3-benzodioxol-5-yl)ethyl-benzyl-amino]-5-methyl-N-methylsulfonyl-thiazole-4-carboxamide] |
| 0.0398 µM | 0.0794 µM | CS(=O)(=O)NC(=O)c1nc(N(Cc2ccc(OC(F)(F)F)cc2)c2ccc(C#N)cc2)sc1Cl [Example 274, 5-chloro-2-[4-cyano-N-[[4-(trifluoromethoxy)phenyl]methyl]anilino]-N-methylsulfonyl-thiazole-4-carboxamide] |
| 0.0501 µM | 0.398 µM | COc1cc(Cl)ccc1CN(c1ccc(C#N)cc1)c1nc(C(=O)NS(C)(=O)=O)c(C)s1 [Compound 118, 2-[N-[(4-chloro-2-methoxy-phenyl)methyl]-4-cyano-anilino]-5-methyl-N-methylsulfonyl-thiazole-4-carboxamide] |
| 0.1 µM | 0.158 µM | COCCCS(=O)(=O)NC(=O)c1nc(N(Cc2ccc(C(F)(F)F)c(C#N)c2)c2ccc(C#N)cc2)sc1C [Compound 534, 2-[4-cyano-N-[[3-cyano-4-(trifluoromethyl)phenyl]methyl]anilino]-N-(3-methoxypropylsulfonyl)-5-methyl-thiazole-4-carboxamide] |
| 0.0398 µM | 0.158 µM | COCCCS(=O)(=O)NC(=O)c1nc(N(Cc2ccc(F)cc2)c2ccc(C#N)cc2)sc1C [Compound 499, 2-[4-cyano-N-[(4-fluorophenyl)methyl]anilino]-N-(3-methoxypropylsulfonyl)-5-methyl-thiazole-4-carboxamide] |
| 0.158 µM | > 10 µM | Cc1sc(N(CCc2ccc(C#N)cc2)Cc2ccc(OC(F)(F)F)cc2)nc1C(=O)NS(=O)(=O)C1CC1 [Compound 721, 2-[2-(4-cyanophenyl)ethyl-[[4-(trifluoromethoxy)phenyl]methyl]amino]-N-cyclopropylsulfonyl-5-methyl-thiazole-4-carboxamide] |
| 0.0631 µM | 0.0794 µM | CCc1sc(N(Cc2ccccc2)c2ccc(C#N)cc2)nc1C(=O)NS(C)(=O)=O [Compound 599, 2-(N-benzyl-4-cyano-anilino)-5-ethyl-N-methylsulfonyl-thiazole-4-carboxamide] |
| 0.631 µM | 1.26 µM | Cc1sc(N(C[C@@H]2CCCC[C@H](O)C2)c2ccc(C#N)cc2)nc1C(=O)NS(C)(=O)=O (racemic) [Compound 473, 2-[4-cyano-N-[[cis-3-hydroxycycloheptyl]methyl]anilino]-5-methyl-N-methylsulfonyl-thiazole-4-carboxamide] |
| 0.126 µM | > 10 µM | CS(=O)(=O)NC(=O)c1nc(N(Cc2ccc(C(F)(F)F)nc2)c2ccc(C#N)cc2)sc1C1CC1 [Compound 659, 2-[4-cyano-N-[[6-(trifluoromethyl)-3-pyridyl]methyl]anilino]-5-cyclopropyl-N-methylsulfonyl-thiazole-4-carboxamide] |
| 0.0501 µM | 1.26 µM | Cc1sc(N(Cc2ccccc2)c2ccc(Cl)c(Cl)c2)nc1C(=O)NS(C)(=O)=O [Compound 37, 2-(N-benzyl-3,4-dichloro-anilino)-5-methyl-N-methylsulfonyl-thiazole-4-carboxamide] |
| 0.0251 µM | 0.251 µM | Cc1sc(N(CCc2ccccc2O)c2ccc(C#N)cc2)nc1C(=O)NS(C)(=O)=O [Compound 379, 2-[4-cyano-N-[2-(2-hydroxyphenyl)ethyl]anilino]-5-methyl-N-methylsulfonyl-thiazole-4-carboxamide] |
| 0.0251 µM | > 10 µM | CS(=O)(=O)NC(=O)c1nc(N(Cc2ccc(Cl)c(Cl)c2)c2ccc(C#N)cc2)oc1C1CC1 [Compound 647, 2-[4-cyano-N-[(3,4-dichlorophenyl)methyl]anilino]-5-cyclopropyl-N-methylsulfonyl-oxazole-4-carboxamide] |
